This note sets out measurements from paper PMC9917184, “Synthesis and Biological Evaluation of Potential Oncoimmunomodulator Agents” (International Journal of Molecular Sciences, 2023).

Like-named read-outs stand apart in the source and are kept apart here.

The subject of data set [1] is HT-29. Kind of data set: HT-29 cell viability in co-culture with Jurkat T cells (flow cytometry count). The class given is cell-based, human. As to conditions: 24 h; for viability at 100 µM: Homo sapiens, HT-29/Jurkat T co-culture, IFN-γ stimulated, read-out: percentage of living HT-29 cells relative to non-treated co-cultures. The procedure, abridged:
(§1)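 HT-29, MCF-7 or A-549 cells in IFN-γ (10 ng/mL) medium were co-cultured with 5 × 10^5 Jurkat T cells per well and 100 µM compound (DMSO control) for 24 h. Jurkat cells from the supernatant and trypsinized cancer cells were PFA-fixed and counted by flow cytometry. Living cells were expressed as % of untreated co-culture.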

The subject of data set [2] is Jurkat T cells. The data set is described as follows: Jurkat T cell viability in co-culture with cancer cells (flow cytometry count). In kind it is cell-based. Conditions: Homo sapiens, 24 h, read-out: percentage of living Jurkat cells relative to non-treated co-cultures. The procedure, abridged: as §1
For orientation: In flow cytometry, cells or beads pass a laser one at a time.

In data set [3] the test system is PD-L1 gene expression. Kind of data set: PD-L1 gene expression by RT-qPCR in MCF-7. The class given is cell-based, human. Conditions: MCF-7, 100 µM, 48 h, control = 100. The procedure:
We also studied the effect of compounds 3, 5, and 7 on both c-Myc and PD-L1 gene expression by RT-qPCR. For this study, we treated MCF-7 cells with 100 µM of the abovementioned compounds, and DMSO was used as a negative control and BMS-8 as a reference compound. After 48 h, cells were lysated, and after the extraction of their mRNA, a RT-pPCR assay was performed as described in the Experimental section.
MCF-7 cells at 70–80% confluence were collected, and 1.5 × 10^5 cells were placed in a six-well plate in 1.5 mL of medium. After 24h, cells were incubated with the corresponding compounds for 48 h. Cells were collected, and the total cellular RNA from MCF-7 cells was isolated using the Ambion RNA extraction kit according to the manufacturer’s instructions. The cDNA was synthesized by MMLV-RT with […] of extracted RNA and oligo(dT)15 according to the manufacturer’s instructions. Genes were amplified by a thermal cycler and StepOnePlus™ TaqMan® probes. TaqMan® Gene Expression Master Mix Fast containing the appropriate buffer for the amplification conditions, dNTPs, thermostable DNA polymerase enzymes, and a passive reference probe was used. To amplify each of the genes, the predesigned primers sold by Life Technologies TaqMan® Gene Expression Assays, Hs99999903-m1 (β-actin), Hs00153408-m1 (c-Myc), and Hs00204257-m1, (PD-L1) were used.
For orientation: Real-time PCR tracks product formation cycle by cycle.

Data set [4] relates to MCF-7. Kind of data set: MCF-7 cell viability in co-culture with Jurkat T cells (flow cytometry count). As to conditions: 24 h; for viability at 100 µM: Homo sapiens, MCF7, MCF-7/Jurkat T co-culture, IFN-γ stimulated, read-out: percentage of living MCF-7 cells relative to non-treated co-cultures; for inhibition rate of MCF-7 cell viability: co-cultured with Jurkat T cells, 100 μM. The class given is cell-based, human. The procedure, abridged:
as §1

In data set [5] the test system is membrane VEGFR-2. The data set is described as follows: Membrane VEGFR-2 relative quantification by flow cytometry in cancer cells co-cultured with Jurkat T cells. The class given is cell-based, human. Conditions: 100 μM, 24 h; for %VEGFR2 (membrane): relative to non-treated co-cultures. The procedure, abridged:
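Interferon γ-stimulated human cancer cells co-cultured with Jurkat T cells and treated 24 h with compounds at 100 μM. Cells then fixed in 4% paraformaldehyde and co-stained with Alexa Fluor 647 anti-PD-L1 and FITC anti-VEGFR-2. Membrane levels quantified together by flow cytometry.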

For data set [6], the system named is IL-6. Kind of data set: IL-6 secretion to the media by ELISA. The class given is cell-based, human. As to conditions: 100 μM, 24 h, control = 100. As to the method: We determined the effect of these compounds on the secretion of IL-6 in monocultures of MCF-7 cells, to establish the effect on cancer cells in monocultures of immune cells THP-1 and in co-cultures of MCF-7 and THP-1 (1:5 proportion). Assays were performed by ELISA using cell media after treatments with selected compounds at 100 μM for 24 h.
On the technique in general: An ELISA detects its analyte on a solid surface through an enzyme-linked reagent.

The test system of data set [7] is MCF-7. The data set is described as follows: MCF-7 cell viability in co-culture with THP-1 cells. In kind it is cell-based, human. Conditions: for viability at 100 µM / inhibition at 100 µM: Homo sapiens; for viability at 100 µM: read-out: cancer cell viability (MCF-7); for inhibition at 100 µM: MCF7, read-out: cancer cell inhibition (MCF-7). The procedure: The effect of the synthesized compounds on tumor cell proliferation in the presence of human monocytic leukemia cell line THP-1 was also studied. This assay was carried out using MCF-7 as the cancer cell line and different proportions of immune cells. Standard proportions for this assay were 1:5 cancer/immune, and we also carried out this assay using a 2:1 proportion of cancer cells as regards immune THP-1 cells. Assays were performed after 24 and 48 h of treatment and using 100 μM doses of selected compounds.
To study the effect of the compounds on the cell viability in co-culture with Jurkat T cells or THP-1 cells, 10^5 or 2 × 10^5 of the corresponding cancer cells line per well were seeded and incubated for 24 h, then the medium was changed by one cell culture medium supplemented with IFN-γ (10 ng/mL; human, Invitrogen®) and containing 5 × 10^5 or 10^5 Jurkat T cells or THP-1, respectively, per well and 100 µM of the corresponding compound or DMSO for the […] control. After 24 h/48 h of incubation, supernatants were collected to determine Jurkat T or THP-1 living cells, and on the other hand, corresponding cancer cells were collected with trypsin. Both types of suspension cells were fixed with 4% in PBS paraformaldehyde and counted by flow cytometry.

Data set [8] relates to A-549. The data set is described as follows: A-549 cell viability in co-culture with Jurkat T cells (flow cytometry count). In kind it is cell-based, human. As to conditions: 24 h; for viability at 100 µM: Homo sapiens, A549, A-549/Jurkat T co-culture, IFN-γ stimulated, read-out: percentage of living A-549 cells relative to non-treated co-cultures. The procedure, abridged:
as §1

Where [9] appears, read: co-cultured with Jurkat T cells, 100 μM.
Setting [10] is: A549 co-cultured with Jurkat T cells.
The mark [11] stands for this setting: HT29 co-cultured with Jurkat T cells.
[12] abbreviates: MCF7 co-cultured with Jurkat T cells.
Setting [13] is: MCF7, 24 h, 1:5 MCF-7/THP-1, 100 μM, 24 h, control = 100.
The mark [14] stands for this setting: MCF7, 24 h, 2:1 MCF-7/THP-1, 100 μM, 24 h, control = 100.
Where [15] appears, read: MCF7, 48 h, 1:5 MCF-7/THP-1, 100 μM, 48 h, control = 100.
Setting [16] is: MCF7, 48 h, 2:1 MCF-7/THP-1, 100 μM, 48 h, control = 100.

The inhibition is the share of the control response that was lost under treatment.

For the compound `COc1ccc(C(OCCc2ccc(CCn3cc(-c4ccc(Br)cc4)nn3)cc2)(c2ccccc2)c2ccc(OC)cc2)cc1` [Compound 3, 1-(4-(2-(bis(4-methoxyphenyl)(phenyl)methoxy)ethyl)phenethyl)-4-(4-bromophenyl)-1H-1,2,3-triazole], the viability at 100 µM came out at 111 ± 5% in data set [1]; 86 ± 4% in data set [2] (A-549/Jurkat T co-culture); 108 ± 33% in data set [2] (HT-29/Jurkat T co-culture); 75 ± 10% in data set [2] (MCF-7/Jurkat T co-culture); 45 ± 4% in data set [4]; 50% in data set [7] (setting [13]). In addition, the viability at 100 µM is 83 ± 9% in data set [7] (setting [14]), 28 ± 2% in data set [7] (setting [15]), 51 ± 17% in data set [7] (setting [16]) and 75 ± 7% in data set [8]. For the same compound, in data set [1] (setting [9]), the “inhibition rate of HT-29 cell viability” value is given as “not active”. In data set [3], the “% PD-L1 gene expression” value is listed as 33 ± 10%. Moreover, the “inhibition rate of MCF-7 cell viability” value in data set [4] is on record as “around 60%”. Moreover, the entries for the “%VEGFR2 (membrane)” value in data set [5] (setting [10]), in data set [5] (setting [11]) and in data set [5] (setting [12]) were 73 ± 4%, 81 ± 7% and 81 ± 4%, respectively. Further, the “membrane VEGFR-2 inhibition rate” value in data set [5] (A-549 co-cultured with Jurkat T cells), in data set [5] (HT-29 co-cultured with Jurkat T cells) and in data set [5] (MCF-7 co-cultured with Jurkat T cells) was “around 20%” throughout. Also, the “Percentage of secreted IL-6 to the media” value in data set [6] (MCF7 + THP-1 co-culture (1:5)) is recorded as 156 ± 12%; in data set [6] (MCF7 monoculture) it was 92 ± 4%; in data set [6] (THP-1 monoculture), 183 ± 5%. Besides, the “cancer cell viability (MCF-7)” value in data set [7] (1:5 MCF-7/THP-1, 100 μM, 24 h, control = 100, 100 µM) is given as 52 ± 7%. For the same compound, the inhibition at 100 µM in data set [7] (2:1 MCF-7/THP-1, 100 μM, 48 h) was 50%. Besides, the “inhibition rate of A-549 cell viability” value in data set [8] (setting [9]) is “active”.

Regarding `Cc1c(COc2ccc(CN3CCCCC3C(=O)O)cc2Br)cccc1-c1ccccc1` (centres unmarked) [BMS-8, reference compound], the viability at 100 µM in data set [1] stood at 34 ± 5%; in data set [2] (A-549/Jurkat T co-culture), 99 ± 9%; in data set [2] (HT-29/Jurkat T co-culture), 148 ± 11%; in data set [2] (MCF-7/Jurkat T co-culture) it was 53 ± 27%; in data set [4] it was 57 ± 7%; in data set [7] (setting [13]) it was 91 ± 30%. Also, the viability at 100 µM in data set [7] (setting [14]) was 100 ± 4%; in data set [7] (setting [15]) it was 42 ± 5%; in data set [7] (setting [16]), 58 ± 10%; in data set [8], 111 ± 9%. In addition, the “% PD-L1 gene expression” value in data set [3] is listed as 31 ± 12%. The “%VEGFR2 (membrane)” value in data set [5] (setting [10]) is given as 104 ± 9%; in data set [5] (setting [11]), 63 ± 4%; in data set [5] (setting [12]), 100 ± 2%. The “Percentage of secreted IL-6 to the media” value in data set [6] (MCF7 monoculture) stood at 41 ± 65%.

In the case of `COc1ccc(C(OCCc2ccc(CCn3cc(-c4ccccc4Br)nn3)cc2)(c2ccccc2)c2ccc(OC)cc2)cc1` [Compound 7, 1-(4-(2-(bis(4-methoxyphenyl)(phenyl)methoxy)ethyl)phenethyl)-4-(2-bromophenyl)-1H-1,2,3-triazole], the viability at 100 µM was 52 ± 6% in data set [1]; 79 ± 11% in data set [2] (A-549/Jurkat T co-culture); 70 ± 8% in data set [2] (HT-29/Jurkat T co-culture); 94 ± 12% in data set [2] (MCF-7/Jurkat T co-culture); 41 ± 4% in data set [4]; 42 ± 10% in data set [7] (setting [13]). Further, the viability at 100 µM stood at 92 ± 11% in data set [7] (setting [14]), 41 ± 10% in data set [7] (setting [15]), 60 ± 13% in data set [7] (setting [16]) and 100 ± 4% in data set [8]. The “% PD-L1 gene expression” value in data set [3] stood at 36 ± 9%. For the same compound, the “inhibition rate of MCF-7 cell viability” value in data set [4] was “around 60%”. Also, the “%VEGFR2 (membrane)” value in data set [5] (setting [10]) is 89 ± 5%; in data set [5] (setting [11]) it was 93 ± 3%; in data set [5] (setting [12]), 100 ± 0%. The “Percentage of secreted IL-6 to the media” value in data set [6] (MCF7 + THP-1 co-culture (1:5)) is on record as 115 ± 4%; in data set [6] (MCF7 monoculture), 91 ± 39%; in data set [6] (THP-1 monoculture) it was 158 ± 11%. Further, the inhibition at 100 µM in data set [7] (2:1 MCF-7/THP-1, 100 μM, 48 h) worked out at 40%.

With `COc1ccc(C(OCCc2ccc(CCn3cc(-c4cccc(Br)c4)nn3)cc2)(c2ccccc2)c2ccc(OC)cc2)cc1` [Compound 5, 1-(4-(2-(bis(4-methoxyphenyl)(phenyl)methoxy)ethyl)phenethyl)-4-(3-bromophenyl)-1H-1,2,3-triazole], the viability at 100 µM is 68 ± 3% in data set [1]; 93 ± 9% in data set [2] (A-549/Jurkat T co-culture); 48 ± 1% in data set [2] (HT-29/Jurkat T co-culture); 96 ± 8% in data set [2] (MCF-7/Jurkat T co-culture); 37 ± 5% in data set [4]; 52 ± 4% in data set [7] (setting [13]). The viability at 100 µM in data set [7] (setting [14]) was determined as 107 ± 3%; in data set [7] (setting [15]), 42 ± 10%; in data set [7] (setting [16]), 69 ± 10%; in data set [8], 105 ± 3%. Besides, the “% PD-L1 gene expression” value in data set [3] is 21 ± 8%. The “%VEGFR2 (membrane)” value is given as 92 ± 2% in data set [5] (setting [10]), 85 ± 4% in data set [5] (setting [11]) and 85 ± 4% in data set [5] (setting [12]). The figures for the “Percentage of secreted IL-6 to the media” value in data set [6] (MCF7 + THP-1 co-culture (1:5)), in data set [6] (MCF7 monoculture) and in data set [6] (THP-1 monoculture) were 137 ± 24%, 73 ± 29% and 173 ± 24%, respectively. In addition, the inhibition at 100 µM in data set [7] (2:1 MCF-7/THP-1, 100 μM, 48 h) turned out to be 30%.
